Data published in ChEMBL document CHEMBL1133348, “Quinonic derivatives active against a virulent strain of Toxoplasma gondii. Synthesis of 2-methylfuro[2,3-g]- and [3,2-g]isoquinolinetriones” (2000).

The compounds below were run on THP-1 (assay: Percentage growth inhibition of Toxoplasma gondii at concentration of 2 ug/mL using an human myelomonocytic cell line THP-1). Conditions: read-out: GI.
Type: functional

SMILES | inhibition of growth at 2 µg/mL [%]
O=C1C=C(Br)C(=O)c2ccccc21 [2-Bromo-1,4-naphthoquinone] | 66
Cc1c2c(cc(=O)n1C)C(=O)c1ccccc1C2=O | 56
CCOc1cnc2c(c1C)C(=O)c1oc(C)c(C)c1C2=O | 89.5
O=C1c2cc(O)ncc2C(=O)c2c(O)cccc21 | 54
Cc1cnc2c(c1)C(=O)c1c(oc(C)c1C)C2=O | 96.5
Cc1cc2c(o1)C(=O)c1cnc(O)cc1C2=O | 62
Cc1cc2c(o1)C(=O)C=C(Br)C2=O | 83
O=C1C(O)=C([C@H]2CC[C@H](c3ccc(Cl)cc3)CC2)C(=O)c2ccccc21 [ATOVAQUONE] | 95
Cc1nc(O)cc2c1C(=O)c1cccc(O)c1C2=O | 50
Cn1cc2c(cc1=O)C(=O)c1ccccc1C2=O | 52
CCc1nc(N)nc(N)c1-c1ccc(Cl)cc1 [PYRIMETHAMINE] | 94
O=C1c2ccccc2C(=O)c2cc(O)ncc21 | 80
Cc1cc2c(o1)C(=O)c1cc(O)ncc1C2=O | 92
Nc1ccc(S(=O)(=O)Nc2ncccn2)cc1 [SULFADIAZINE] | 90
CCC[C@@H]1C[C@@H](C(=O)N[C@@H]([C@H]2O[C@H](SC)[C@H](O)[C@@H](O)[C@H]2O)[C@H](C)Cl)N(C)C1 [CLINDAMYCIN] | 86
